# Reference: patent US6518012B1, “Method for regulating the expression of MHC antigens and CD40 by inhibitors of histone deacetylation” (Health Research, Inc., priority 1999, dated 2003)
# Key:
# [1] = tested on: IRF-1, GBP and MHC class I mRNA; experiment: mRNA of IRF-1, GBP and MHC class I in J558; format: cell-based, mouse; conditions: IFNγ, data not shown
# Description: To determine if the effect of DAIs on MHC class II was manifested in other tumors and in different species, the effect of TSA was tested on four commonly used mouse tumor models: the SaI fibrosarcoma, the Colon 26 adenocarcinoma, the J558 plasmacytoma and the P815 mastocytoma. TSA induced class II in all four mouse tumors examined, while the effects of IFNγ were variable (FIG. 4). Data presented for each cell line represents optimal incubation time and concentration of TSA and is compared with 100 U/ml of IFNγ at the same time point. Numbers over bars represents fold changes. […] Colon 26 and J558 that differed strikingly in their reactivity to IFNγ were selected for further evaluation. RT-PCR and real time PCR was used to examine induction of CIITA and IAα by TSA and IFNγ. A20, a constitutively positive B cell line was used as a positive control. The results are shown in FIGS. 5A-D. The numbers over bars represent fold changes. […] Since the classical IFNγ inducible genes IRF-1 and GBP as well as MHC class I mRNA were not induced by IFNγ in J558 (data not shown), this cell line may have a signaling defect in the IFNγ pathway. Unexpectedly however, and unlike either the MC or Colon 26 cells, TSA induced both CIITA (102-fold) and Iα (537-fold) in J558 as shown in FIGS. 5B and 5D.
# [2] = tested on: interferon regulatory factor (IRF-1) and guanylate binding protein (GBP) mRNA; experiment: mRNA of IFNγ inducible genes IRF-1 and GBP in SK-N-MC; format: cell-based, human; conditions: IFNγ treatment, data not shown
# [3] = tested on: MC, Colon 26 and J558 cells; experiment: Cell cycle analysis by DNA staining and flow cytometry; format: cell-based; conditions: TSA concentrations used in FIG. 8 (50 nM 48 hours MC and Colon 26; 25 nM 24 hours J558); data not shown
# Description: (§1) To determine the effect of TSA on cell surface protein expression, the J558 cell line was subjected to flow cytometric analyses as follows. Flow cytometric analyses were conducted by standard methods using cells fixed with 1.0% paraformaldehyde and analyzed on the FACScan (Becton Dickinson). Cell cycle analyses were carried out by flow cytometry with PI staining of genomic DNA. Cells were fixed and permeablized in methanol, treated with RNaseA and analyzed for DNA content by determination of FL3-area on the FACScan. The FL3-area data were analyzed with the ModFit software for determination of the percent cells in each phase of the cell cycle. In some cases, fluorescein isothiocyanate (FITC)-conjugated antibody staining was conducted prior to PI treatment and surface staining was analyzed as a function of cell cycle phase. Apoptosis was analyzed by staining with annexin-V directly conjugated with either FITC or RPE and by sub-G0 analysis of DNA staining. […] Isotype controls were analyzed and, in each case, fell on or below the levels shown for control cells. […] Since all cells were positive for MHC class I expression, the number under the histogram represents -fold change of expression calculated from the mean channel-shift after treatment relative to untreated cells. […]
# [4] = tested on: DP and DQ isotypes of MHC class II mRNA; experiment: mRNA for DP and DQ isotypes of MHC class II in SK-N-MC; format: cell-based, human; conditions: data not shown
# CD40 = experiment: Cell surface CD40 by flow cytometry on SK-N-MC; format: cell-based, human; conditions: 50 nM TSA 48 hours
# [5] = tested on: MC, Colon 26 and J558 cells; experiment: Apoptosis by flow cytometry (sub-G0 PI staining, annexin-V); format: cell-based; conditions: low concentrations of TSA employed in FIG. 8
# Description: as §1
mRNA for IRF-1 and GBP [2],Compound,"IRF-1, GBP and MHC class I mRNA induction [1]",effect on the cell cycle [3],mRNA for the DP and DQ isotypes of MHC class II [4],expression of CD40 on cell surface (CD40),apoptosis [5]
enhanced,"IFNγ: gamma-interferon, cytokine used as comparator at 100 U/ml",not induced,–,–,–,–
–,"CC(/C=C/C(=O)NO)=C\[C@@H](C)C(=O)c1ccc(N(C)C)cc1 [TSA, Trichostatin A]",–,did not significantly alter,induced,induced expression,could not be detected
